Legend:
Assay in all cases: Bliss excess, mean over the matrix (fraction); higher = more synergy
[1] = system: DoTc2-4510 (Cervical Carcinoma)
Summary of the method: (§1)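 After 24 hours at 37°C and 5% CO2 in 1536-well plates, cells in DMEM/F12 or RPMI plus 10% FBS received two-drug dose matrices for 72 hours. Viability came from CellTiter-Glo 2.0 luminescence and was scaled as inhibition, anchored at 0 by vehicle wells and at 1 by blank wells. Combination Emax is taken as the second-highest inhibition in the matrix, and Bliss excess as the observed combination effect less EA + EB − EA·EB, with EA and EB the single-agent effects.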

[2] = system: TCCSUP (Bladder Carcinoma)
Summary of the method: as §1

[3] = system: DEL (T-Cell Non-Hodgkin's Lymphoma)
Summary of the method: as §1

[4] = system: Calu-3 (Lung Adenocarcinoma)
Summary of the method: as §1

[5] = system: HT-1376 (Bladder Carcinoma)
Summary of the method: as §1

[6] = system: TE-15 (Esophageal Squamous Cell Carcinoma)
Summary of the method: as §1

[7] = system: NCI-H2085 (Non-Small Cell Lung Carcinoma)
Summary of the method: as §1

[8] = system: Daoy (Other Solid Carcinomas)
Summary of the method: as §1

[9] = system: MDA-MB-361 (Breast Carcinoma)
Summary of the method: as §1

[10] = system: NB10 (Neuroblastoma)
Summary of the method: as §1

[11] = system: NOS-1 (Osteosarcoma)
Summary of the method: as §1

[12] = system: KURAMOCHI (Ovarian Carcinoma)
Summary of the method: as §1

[13] = system: CaR-1 (Colorectal Carcinoma)
Summary of the method: as §1

[14] = system: HO-1-N-1 (Oral Cavity Carcinoma)
Summary of the method: as §1

[15] = system: TE-9 (Esophageal Squamous Cell Carcinoma)
Summary of the method: as §1

[16] = system: COLO-205 (Colorectal Carcinoma)
Summary of the method: as §1

[17] = system: 42-MG-BA (Glioblastoma)
Summary of the method: as §1

[18] = system: HuP-T4 (Pancreatic Carcinoma)
Summary of the method: as §1

[19] = system: AGS (Gastric Carcinoma)
Summary of the method: as §1

[20] = system: UM-UC-3 (Bladder Carcinoma)
Summary of the method: as §1

| SMILES | Bliss excess [1] | Bliss excess [2] | Bliss excess [3] | Bliss excess [4] | Bliss excess [5] | Bliss excess [6] | Bliss excess [7] | Bliss excess [8] | Bliss excess [9] | Bliss excess [10] | Bliss excess [11] | Bliss excess [12] | Bliss excess [13] | Bliss excess [14] | Bliss excess [15] | Bliss excess [16] | Bliss excess [17] | Bliss excess [18] | Bliss excess [19] | Bliss excess [20] |
| --- | --- | --- | --- | --- | --- | --- | --- | --- | --- | --- | --- | --- | --- | --- | --- | --- | --- | --- | --- | --- |
| NC1(C(=O)N[C@@H](CCO)c2ccc(Cl)cc2)CCN(c2ncnc3[nH]ccc23)CC1 [Capivasertib] + CC(=O)c1c(C)c2cnc(Nc3ccc(N4CCNCC4)cn3)nc2n(C2CCCC2)c1=O [Palbociclib] (first compound max 10 µM, 7x7, partner max 10 µM) | -0.0983 | 0.0372 | 0.0706 | 0.0775 | -0.0388 | 0.0281 | -0.0561 | 0.0306 | -0.0161 | 0.0232 | -0.0389 | -0.0124 | 0.0034 | 0.026 | -0.0271 | 0.0317 | -0.0633 | -0.0118 | 0.0794 | 0.0504 |
| NC1(C(=O)N[C@@H](CCO)c2ccc(Cl)cc2)CCN(c2ncnc3[nH]ccc23)CC1 [Capivasertib] + CC(C)n1c(=O)n(C)c2cnc3cc(F)c(-c4ccc(OCCCN5CCCCC5)nc4)cc3c21 [AZD1390] (first compound max 10 µM, 7x7, partner max 0.3 µM) | -0.0976 | -0.084 | 0.0336 | -0.0016 | -0.0399 | -0.0774 | -0.0564 | -0.0281 | -0.0555 | -0.0544 | -0.0117 | -0.0085 | -0.0401 | 0.0055 | -0.0431 | -0.0605 | -0.0608 | -0.0978 | -0.108 | -0.0211 |
| NC1(C(=O)N[C@@H](CCO)c2ccc(Cl)cc2)CCN(c2ncnc3[nH]ccc23)CC1 [Capivasertib] + CCN(CCO)CCCOc1ccc2c(Nc3cc(CC(=O)Nc4cccc(F)c4)[nH]n3)ncnc2c1 [AZD2811] (first compound max 10 µM, 7x7, partner max 1 µM) | -0.0749 | -0.0397 | -0.0743 | 0.0092 | -0.0314 | -0.0095 | -0.0318 | 0.0146 | 0.0141 | -0.0793 | 0.0431 | -0.0444 | -0.0236 | -0.046 | -0.0124 | -0.0551 | -0.0306 | -0.0614 | 0.0129 | -0.0255 |
| NC1(C(=O)N[C@@H](CCO)c2ccc(Cl)cc2)CCN(c2ncnc3[nH]ccc23)CC1 [Capivasertib] + COc1nnc2ccc(N3CCC(c4ccc(OCCN5CCN(C)C(=O)[C@H]5C)cc4)CC3)nn12 [AZD5153] (first compound max 10 µM, 7x7, partner max 1 µM) | -0.0084 | 0.0311 | -0.0363 | 0.0283 | -0.0317 | 0.0642 | 0.044 | 0.0494 | 0.0588 | 0.0121 | 0.0423 | -0.0158 | 0.0378 | 0.0214 | 0.0567 | 0.0237 | 0.0611 | -0.0315 | 0.0228 | -0.0158 |
| NC1(C(=O)N[C@@H](CCO)c2ccc(Cl)cc2)CCN(c2ncnc3[nH]ccc23)CC1 [Capivasertib] + C[C@@H]1COCCN1C2=NC(=NC(=C2)C3(CC3)[S@](=N)(=O)C)C4=C5C=CNC5=NC=C4 [AZD6738] (first compound max 10 µM, 7x7, partner max 10 µM) | -0.0192 | -0.0312 | 0.0172 | -0.0381 | -0.0153 | -0.0494 | -0.0192 | -0.0462 | -0.11 | -0.0364 | -0.0057 | -0.0376 | -0.0194 | -0.0027 | -0.0415 | 0.0092 | -0.0514 | -0.0333 | -0.0449 | 0.0085 |
| NC1(C(=O)N[C@@H](CCO)c2ccc(Cl)cc2)CCN(c2ncnc3[nH]ccc23)CC1 [Capivasertib] + Cn1cnc2c(F)c(Nc3ccc(Br)cc3Cl)c(C(=O)NOCCO)cc21 [Selumetinib] (first compound max 10 µM, 7x7, partner max 10 µM) | 0.0133 | -0.0385 | 0.054 | 0.0295 | -0.0149 | 0.0234 | 0.0035 | 0.0225 | 0.0297 | 0.037 | -0.019 | 0.0079 | 0.0076 | 0.105 | -0.0011 | -0.0598 | 0.0697 | 0.028 | 0.0697 | 0.0946 |
| Cc1nc(Nc2ncc(C(=O)Nc3c(C)cccc3Cl)s2)cc(N2CCN(CCO)CC2)n1 [Dasatinib] + CC(=O)Nc1cccc(-n2c(=O)n(C3CC3)c(=O)c3c(Nc4ccc(I)cc4F)n(C)c(=O)c(C)c32)c1 [Trametinib] (first compound max 2 µM, 7x7, partner max 1 µM) | -0.0338 | -0.0443 | 0.0076 | 0.0074 | 0.0158 | -0.0414 | 0.0168 | 0.0053 | -0.0072 | -0.0024 | 0.0688 | 0.0706 | -0.0711 | 0.0676 | -0.0104 | -0.128 | -0.023 | 0.0075 | 0.0433 | 0.112 |
| COc1cccc2c1C(=O)c1c(O)c3c(c(O)c1C2=O)C[C@@](O)(C(=O)CO)C[C@@H]3O[C@H]1C[C@H](N)[C@H](O)[C@H](C)O1 [Doxorubicin] + Cc1cc2ncnn2cc1Nc1ncc2c(n1)n(C1CCOCC1)c(=O)n2C [AZD7648] (first compound max 1 µM, 7x7, partner max 10 µM) | 0.0248 | 0.0282 | 0.0935 | -0.0006 | -0.0544 | 0.0507 | 0.0299 | 0.0851 | 0.0255 | 0.0799 | 0.0202 | 0.0251 | 0.0309 | 0.0808 | -0.0393 | -0.0041 | 0.0271 | 0.0316 | 0.109 | 0.0688 |
| COc1cc2ncnc(Nc3ccc(F)c(Cl)c3)c2cc1OCCCN1CCOCC1 [Gefitinib] + CC(C)n1c(=O)n(C)c2cnc3cc(F)c(-c4ccc(OCCCN5CCCCC5)nc4)cc3c21 [AZD1390] (first compound max 10 µM, 7x7, partner max 0.3 µM) | -0.0601 | -0.0593 | -0.0317 | -0.048 | -0.0387 | -0.0941 | -0.0515 | -0.0373 | -0.0535 | -0.0629 | -0.063 | -0.0401 | -0.0812 | -0.0506 | -0.0522 | -0.0578 | -0.0891 | -0.0574 | -0.0871 | -0.0583 |
| CS(=O)(=O)CCNCc1ccc(-c2ccc3ncnc(Nc4ccc(OCc5cccc(F)c5)c(Cl)c4)c3c2)o1 [Lapatinib] + C[C@@H](Oc1cc(-c2cnn(C3CCNCC3)c2)cnc1N)c1c(Cl)ccc(F)c1Cl [Crizotinib] (first compound max 10 µM, 7x7, partner max 10 µM) | -0.0321 | -0.0611 | 0.0074 | 0.0052 | -0.0343 | -0.0148 | -0.0813 | -0.0297 | 0.0278 | -0.0771 | -0.0114 | -0.0794 | -0.0084 | -0.0493 | -0.0194 | -0.0261 | -0.0709 | 0.0261 | 0.0118 | -0.0739 |
| CC(=O)c1c(C)c2cnc(Nc3ccc(N4CCNCC4)cn3)nc2n(C2CCCC2)c1=O [Palbociclib] + CC1(C)CCC(CN2CCN(c3ccc(C(=O)NS(=O)(=O)c4ccc(NCC5CCOCC5)c([N+](=O)[O-])c4)c(Oc4cnc5[nH]ccc5c4)c3)CC2)=C(c2ccc(Cl)cc2)C1 [Venetoclax] (first compound max 10 µM, 7x7, partner max 1 µM) | -0.058 | -0.0508 | 0.027 | -0.0252 | -0.0453 | -0.0257 | -0.0306 | 0.005 | -0.0751 | 0.0062 | 0.0157 | -0.0418 | -0.0507 | -0.0322 | -0.035 | -0.0065 | -0.0093 | -0.0281 | -0.0493 | -0.0219 |
| CC(=O)c1c(C)c2cnc(Nc3ccc(N4CCNCC4)cn3)nc2n(C2CCCC2)c1=O [Palbociclib] + Cc1c2c(nn1C)CSCc1cc(n(C)n1)CSc1cc(c3ccccc3c1)OCCCc1c(C(=O)O)n(C)c3c-2c(Cl)ccc13 [AZD5991] (first compound max 10 µM, 7x7, partner max 1 µM) | -0.0143 | -0.0395 | 0.0007 | -0.0039 | -0.0073 | -0.0236 | -0.0374 | -0.0112 | -0.0789 | 0.0435 | -0.0006 | 0.0188 | -0.0621 | -0.0554 | -0.0334 | -0.0487 | -0.0391 | -0.0184 | -0.04 | -0.0212 |
| CC(=O)c1c(C)c2cnc(Nc3ccc(N4CCNCC4)cn3)nc2n(C2CCCC2)c1=O [Palbociclib] + Cn1cnc2c(F)c(Nc3ccc(Br)cc3Cl)c(C(=O)NOCCO)cc21 [Selumetinib] (first compound max 10 µM, 7x7, partner max 10 µM) | -0.0384 | -0.0438 | 0.0224 | -0.0095 | -0.047 | 0.0179 | 0.0018 | -0.0082 | -0.0238 | 0.0998 | -0.0152 | 0.0078 | -0.0229 | 0.0927 | 0.0099 | -0.081 | -0.0776 | 0.0396 | -0.0123 | -0.0001 |
| COc1cccc(OCCCN)c1-c1cc(Nc2cnc(C#N)cn2)n[nH]1 [Prexasertib] + C=CCn1c(=O)c2cnc(Nc3ccc(N4CCN(C)CC4)cc3)nc2n1-c1cccc(C(C)(C)O)n1 [AZD1775] (first compound max 1 µM, partner max 1 µM) | 0.048 | 0.0389 | 0.0279 | 0.0255 | -0.0538 | 0.0165 | 0.124 | 0.0573 | 0.0331 | 0.13 | 0.0924 | 0.0282 | 0.086 | 0.104 | 0.2 | 0.125 | 0.0835 | 0.0747 | 0.195 | 0.14 |
| COc1cccc(OCCCN)c1-c1cc(Nc2cnc(C#N)cn2)n[nH]1 [Prexasertib] + CCc1c2c(nc3ccc(O)cc13)-c1cc3c(c(=O)n1C2)COC(=O)[C@]3(O)CC [SN-38] (first compound max 1 µM, 7x7, partner max 0.3 µM) | 0.0167 | 0.0743 | -0.0068 | -0.0003 | -0.0265 | -0.0275 | -0.0245 | 0.0128 | -0.0298 | -0.0986 | 0.0864 | 0.0311 | -0.053 | -0.0054 | 0.0438 | 0.153 | 0.0122 | -0.0424 | -0.0467 | 0.0017 |

Source: the supplement of paper PMC11061612
